Where a name gives a salt, the structure may show the parent alone. Read-outs that look alike come from different tables or passages of the source.
System: EVSA-T (human breast carcinoma)
Assay: Anti-proliferative activity, Alamar Blue assay, EVSA-T
Format: cell-based
[1] = Homo sapiens, EVSA-T, 72 h, EVSA-T cells, 72 hours, Alamar Blue, read-out: EVSA-T prolif
[2] = Homo sapiens, EVSA-T, read-out: EC50 in EVSA-T cell line assays
[3] = EVSA-T cells, 72 hours, Alamar Blue, dihydrochloride, read-out: EVSA-T prolif

| SMILES | EC50 [1] [nM] | EC50 [2] [nM] | EC50 [3] [nM] |
| --- | --- | --- | --- |
| C[C@@H]1CN(CC(=O)N2CC(C)(C)c3ncc(Cc4ccc(F)cc4)cc32)[C@@H](CN2C3CCC2COC3)CN1 [Example 17, 1-{6-[(4-Fluorophenyl)methyl]-3,3-dimethyl-1H,2H,3H-pyrrolo[3,2-b]pyridin-1-yl}-2-[(2R,5R)-5-methyl-2-{3-oxa-8-azabicyclo[3.2.1]octan-8-ylmethyl}piperazin-1-yl]ethan-1-one dihydrochloride] | 3.8 | < 1000 | – |
| CC1CC(=O)CCN1C[C@H]1CN[C@H](C)CN1CC(=O)N1CC(C)(C)c2ncc(Cc3ccc(F)cc3)cc21 (single isomer, unassigned) [Example 39, (2R or 2S)-1-{[(2R,5R)-1-(2-{6-[(4-Fluorophenyl)methyl]-3,3-dimethyl-1H,2H,3H-pyrrolo[3,2-b]pyridin-1-yl}-2-oxoethyl)-5-methylpiperazin-2-yl]methyl}-2-methylpiperidin-4-one dihydrochloride] | 5.4 | < 1000 | – |
| CCCC(O)c1cc2c(cn1)C(C)(C)CN2C(=O)CN1C[C@@H](C)NC[C@@H]1CN1[C@H](C)COC[C@H]1C (stereo partly drawn) [Example 90, 2-[(2R,5R)-2-{[(3R,5R)-3,5-Dimethylmorpholin-4-yl]methyl}-5-methylpiperazin-1-yl]-1-[6-(1-hydroxybutyl)-3,3-dimethyl-1H,2H,3H-pyrrolo[3,2-c]pyridin-1-yl]ethan-1-one dihydrochloride] | 29 | < 1000 | – |
| C[C@@H]1CN(CC(=O)N2CC(C)(C)c3ncc(Cc4ccc(F)cc4)cc32)[C@@H](CN2CCOC(C#N)C2)CN1 (stereo partly drawn) [Example 31, 4-{[(2R,5R)-1-(2-{6-[(4-Fluorophenyl)methyl]-3,3-dimethyl-1H,2H,3H-pyrrolo[3,2-b]pyridin-1-yl}-2-oxoethyl)-5-methylpiperazin-2-yl]methyl}morpholine-2-carbonitrile] | 1.1 | < 1000 | – |
| CC1CS(=O)(=O)CCN1C[C@H]1CN[C@H](C)CN1CC(=O)N1CC(C)(C)c2ncc(Cc3ccc(F)cc3)cc21 (stereo partly drawn) [Example 9, 4-{[(2R,5R)-1-(2-{6-[(4-Fluorophenyl)methyl]-3,3-dimethyl-1H,2H,3H-pyrrolo[3,2-b]pyridin-1-yl}-2-oxoethyl)-5-methylpiperazin-2-yl]methyl}-3-methyl-1λ^6,4-thiomorpholine-1,1-dione dihydrochloride] | 2.1 | < 1000 | – |
| C[C@@H]1CN(CC(=O)N2CC(C)(C)c3ncc(Cc4ccc(F)cc4)cc32)[C@@H](CN2[C@H](CO)COC[C@H]2C)CN1 [Example 37, 1-{6-[(4-Fluorophenyl)methyl]-3,3-dimethyl-1H,2H,3H-pyrrolo[3,2-b]pyridin-1-yl}-2-[(2R,5R)-2-{[(3R,5R)-3-(hydroxymethyl)-5-methylmorpholin-4-yl]methyl}-5-methylpiperazin-1-yl]ethan-1-one, dihydrochloride] | 2.8 | < 1000 | – |
| C[C@@H]1CN(CC(=O)N2CC(C)(C)c3ncc(Cc4ccc(F)cc4)cc32)[C@@H](CN2CCOCC2(C)C)CN1 [Example 5, 2-[(2R,5R)-2-[(3,3-Dimethylmorpholin-4-yl)methyl]-5-methylpiperazin-1-yl]-1-{6-[(4-fluorophenyl)methyl]-3,3-dimethyl-1H,2H,3H-pyrrolo[3,2-b]pyridin-1-yl}ethan-1-one dihydrochloride] | 0.3 | < 1000 | – |
| CCCC(F)(F)c1cc2c(cn1)C(C)(C)CN2C(=O)CN1C[C@@H](C)NC[C@@H]1CN1[C@H](C)CN(C(C)=O)C[C@@H]1C [Example 93, 2-[(2R,5R)-2-{[(2R,6S)-4-Acetyl-2,6-dimethylpiperazin-1-yl]methyl}-5-methylpiperazin-1-yl]-1-[6-(1,1-difluorobutyl)-3,3-dimethyl-1H,2H,3H-pyrrolo[3,2-c]pyridin-1-yl]ethan-1-one dihydrochloride] | 7.1 | < 1000 | – |
| C[C@@H]1CN(CC(=O)N2CC(C)(C)c3ncc(C(O)c4ccccc4)cc32)[C@@H](CN2[C@H](C)COC[C@H]2C)CN1 (single isomer, unassigned) [Example 114, 2-[(2R,5R)-2-{[(3R,5R)-3,5-Dimethymorpholin-4-yl]methyl}-5-methylpiperazin-1-yl]-1-{(R or S)-6-[hydroxy(phenyl)methyl]-3,3-dimethyl-1H,2H,3H-pyrrolo[3,2-b]pyridin-1-yl}ethan-1-one dihydrochloride] | – | – | 24 |
| C[C@@H]1CN(CC(=O)N2CC(C)(C)c3ncc(Cc4ccc(F)cc4)cc32)[C@@H](CN2CCC[C@@H](F)C2)CN1 [Example 14, 1-{6-[(4-Fluorophenyl)methyl]-3,3-dimethyl-1H,2H,3H-pyrrolo[3,2-b]pyridin-1-yl}-2-[(2R,5R)-2-{[(3R)-3-fluoropiperidin-1-yl]methyl}-5-methylpiperazin-1-yl]ethan-1-one dihydrochloride] | 4.6 | < 1000 | – |
| C[C@@H]1CN(CC(=O)N2CC(C)(C)c3ncc(Cc4ccc(F)cc4)cc32)[C@@H](CN2CCC(F)(F)CC2)CN1 [Example 4, 2-[(2R,5R)-2-[(4,4-Difluoropiperidin-1-yl)methyl]-5-methylpiperazin-1-yl]-1-{6-[(4-fluorophenyl)methyl]-3,3-dimethyl-1H,2H,3H-pyrrolo[3,2-b]pyridin-1-yl}ethan-1-one dihydrochloride] | 6.8 | < 1000 | – |
| C[C@@H]1CN(CC(=O)N2CC(C)(C)c3ncc(Cc4ccc(F)cc4)cc32)[C@@H](CN2CCOCC(F)(F)C2)CN1 [Example 28, 2-[(2R,5R)-2-[(6,6-Difluoro-1,4-oxazepan-4-yl)methyl]-5-methylpiperazin-1-yl]-1-{6-[(4-fluorophenyl)methyl]-3,3-dimethyl-1H,2H,3H-pyrrolo[3,2-b]pyridin-1-yl}ethan-1-one dihydrochloride] | 3.1 | < 1000 | – |
| C[C@@H]1CN(CC(=O)N2CC(C)(C)c3ncc(C(O)c4ccc(F)cc4F)cc32)[C@@H](CN2[C@H](C)COC[C@H]2C)CN1 (single isomer, unassigned) [Example 103, (R or S)-1-[6-[(2,4-Difluorophenyl)(hydroxy)meth-yl]-3,3-dimethyl-1H,2H,3H-pyrrolo[3,2-b]pyridin-1-yl}-2-[(2R,5R)-2-{[(3R,5R)-3,5-dimethylmorpholin-4-yl]methyl}-5-methylpiperazin-1-yl]ethan-1-one dihydrochloride] | – | < 1000 | 2.8 |
| C[C@@H]1CN(CC(=O)N2CC(C)(C)c3ncc(Cc4ccc(F)cc4)cc32)[C@@H](CN2CCC(O)CC2)CN1 [Example 23, 1-{6-[(4-Fluorophenyl)methyl]-3,3-dimethyl-1H,2H,3H-pyrrolo[3,2-b]pyridin-1-yl}-2-[(2R,5R)-2-[(4-hydroxypiperidin-1-yl)methyl]-5-methylpiperazin-1-yl]ethan-1-one dihydrochloride] | 3.8 | < 1000 | – |
| C[C@@H]1CN(CC(=O)N2CC(C)(C)c3ncc(Cc4ccc(F)cc4)cc32)[C@@H](CN2CCn3cnnc3C2)CN1 [Example 71, 1-{6-[(4-Fluorophenyl)methyl]-3,3-dimethyl-1H,2H,3H-pyrrolo[3,2-b]pyridin-1-yl}-2-[(2R,5R)-5-methyl-2-{5H, 6H, 7H, 8H-[1,2,4]triazolo[4,3-a]pyrazin-7-ylmethyl}piperazin-1-yl]ethan-1-one dihydrochloride] | 98 | < 1000 | – |

From US9980973B2, “Bicyclic heterocycle compounds and their uses in therapy” (ASTEX THERAPEUTICS LIMITED, priority 2012, dated 2018)
